Results from paper PMC10669656, “ADMET and Solubility Analysis of New 5-Nitroisatine-Based Inhibitors of CDK2 Enzymes” (Biomedicines, 2023).
Values after ≈ are worked out from the molar mass of the structure shown. Values joined by “and” are separate entries in the source; they are usually repeats but may differ in a detail not shown here. Identical values can stand only once.

Key:
Type in all cases: physicochemical
[1] = Solubility in neat solvents, shake-flask with spectrophotometric determination; details: for solubility at 24 h: 25 °C, organic solvent or mixture, thermodynamic from solid
Procedure: (§1) The calibration curves for each derivative were obtained using successful dilutions of initial stock solutions followed by spectrophotometric measurements of the obtained solutions with decreasing concentration. The concentration ranges for the derivatives 1, 2, and 3 were 0.0081–0.0405 mg/mL, 0.0077–0.0385 mg/mL, and 0.0068–0.017 mg/mL, respectively. Methanol was used both as a solvent, as well as a reference for spectrophotometric measurements. […] The A360 spectrophotometer from AOE Instruments was used for the preparation of the calibration curves. […] Three calibration curves were prepared for each derivative and then averaged.
(§2) A multi-step procedure was employed in order to find the solubility of the studied derivatives in the selected solvents. First of all, the excess amount of the considered compound was added to test tubes containing either neat solvents or their mixtures with water in different proportions, thus forming binary solvents. Saturated solutions were obtained in this way, placed in a Shaker Incubator ES-20/60 from Biosan, and incubated for 24 h at 298.1 K. The temperature adjustment was possible with a 0.1-degree accuracy, and the variance within a 24 h cycle was 0.5 degrees. The samples were simultaneously mixed at 60 rev/min. After incubation, the samples were filtered with the help of plastic syringes equipped with PTFE filters with 0.22 µm pore size. The obtained filtrates were diluted with methanol in another set of test tubes. In order to determine the mole fractions of a solute in the solution, 1 mL of the filtered samples was weighed in 10 mL volumetric flasks using a RADWAG AS 110 R2.PLUS analytical balance. The samples diluted with methanol were measured spectrophotometrically using the same instrument as was used in the case of calibration curves. The spectra were recorded in the wavelength range of 190–500 nm, and the resolution was 1 nm. Methanol was used if further dilution of the sample was required, and it was also used as a reference for calibrating the spectrophotometer. The absorbance values at 315 nm, 321 nm, and 321 nm were taken into account for derivatives 1, 2, and 3, respectively. Based on the calibration curves, the concentration of the solute in the samples was determined together with its mole fraction. Three separate measurements were conducted, and the final values are the results of averaging them.

[2] = Solubility in DMSO-water binary mixtures; details: for solubility at 24 h: 25 °C, thermodynamic from solid
Procedure: as §1, §2

[3] = Solubility in NMP-water binary mixtures; details: for solubility at 24 h: thermodynamic from solid
Procedure: as §1, §2

[4] = neat γ-nonanoic lactone, 298.1 K

O=C1Nc2ccc([N+](=O)[O-])cc2C1=NNC(=O)c1cccc([N+](=O)[O-])c1 [derivative 3, 3-nitro-N′-[5-nitro-2-oxo-1,2-dihydro-3H-indol-3-ylidene]benzohydrazide]
solubility at 24 h ([1]; neat DMF, 298.1 K): 1690 µg/mL (≈ 4.76 mM)
solubility at 24 h ([1]; neat DMP, 298.1 K): 80 µg/mL (≈ 0.225 mM)
solubility at 24 h ([1]; neat DMSO, 298.1 K): 3090 µg/mL (≈ 8.7 mM)
solubility at 24 h ([1]; neat NMP, 298.1 K): 8990 µg/mL (≈ 25.3 mM)
solubility at 24 h ([1]; neat acetone, 298.1 K): 210 µg/mL (≈ 0.591 mM)
solubility at 24 h ([1]; neat acetonitrile, 298.1 K): 170 µg/mL (≈ 0.479 mM)
solubility at 24 h ([1]; neat cyrene, 298.1 K): 290 µg/mL (≈ 0.816 mM)
solubility at 24 h ([1]; neat diglyme, 298.1 K): 520 µg/mL (≈ 1.46 mM)
solubility at 24 h ([1]; neat dioxane, 298.1 K): 310 µg/mL (≈ 0.873 mM)
solubility at 24 h ([1]; neat ethyl lactate, 298.1 K): 180 µg/mL (≈ 0.507 mM)
solubility at 24 h ([1]; neat methanol, 298.1 K): 60 µg/mL (≈ 0.169 mM)
solubility at 24 h ([1]; neat tetraglyme, 298.1 K): 430 µg/mL (≈ 1.21 mM)
solubility at 24 h ([1]; neat triglyme, 298.1 K): 230 µg/mL (≈ 0.647 mM)
solubility at 24 h ([1]; neat γ-heptalactone, 298.1 K): 440 µg/mL (≈ 1.24 mM)
solubility at 24 h [1, 4]: 280 µg/mL (≈ 0.788 mM)
solubility at 24 h ([1]; neat 1-butanol): 20 µg/mL (≈ 0.0563 mM)
solubility at 24 h ([1]; neat 1-propanol): 20 µg/mL (≈ 0.0563 mM)
solubility at 24 h ([1]; neat 4FM): 940 µg/mL (≈ 2.65 mM)
solubility x ([1]; neat 4FM, 298.1 K): 2.65 (0.11) × 10^−4 mole fraction
solubility x ([1]; neat DMF, 298.1 K): 3.69 × 10^−4 mole fraction and 3.69 (0.05) × 10^−4 mole fraction
solubility x ([1]; neat DMP, 298.1 K): 0.27 (0.01) × 10^−4 mole fraction
solubility x ([1]; neat DMSO, 298.1 K): 6.12 × 10^−4 mole fraction and 6.12 (0.10) × 10^−4 mole fraction
solubility x ([1]; neat NMP, 298.1 K): 2.44 × 10^−3 mole fraction and 2.44 (0.07) × 10^−3 mole fraction
solubility x ([1]; neat acetone, 298.1 K): 0.43 (0.01) × 10^−4 mole fraction
solubility x ([1]; neat cyrene, 298.1 K): 0.83 (0.01) × 10^−4 mole fraction
solubility x ([1]; neat diglyme, 298.1 K): 2.08 (0.07) × 10^−4 mole fraction
solubility x ([1]; neat dioxane, 298.1 K): 0.74 (0.01) × 10^−4 mole fraction
solubility at 24 h ([1]; neat ethanol): 30 µg/mL (≈ 0.0844 mM)
solubility x ([1]; neat ethyl lactate, 298.1 K): 0.57 (0.01) × 10^−4 mole fraction
solubility x ([1]; neat tetraglyme, 298.1 K): 2.67 (0.09) × 10^−4 mole fraction
solubility x ([1]; neat triglyme, 298.1 K): 1.17 (0.05) × 10^−4 mole fraction
solubility x ([1]; neat γ-heptalactone, 298.1 K): 1.59 (0.04) × 10^−4 mole fraction
solubility x [1, 4]: 1.26 (0.05) × 10^−4 mole fraction
solubility at 24 h ([1]; neat ε-caprolactone): 340 µg/mL (≈ 0.957 mM)
solubility x ([1]; neat ε-caprolactone, 298.1 K): 1.02 (0.02) × 10^−4 mole fraction
solubility at 24 h ([2]; DMSO-water binary mixture, aqueous with cosolvent or surfactant or cyclodextrin, x*DMSO 0.1, 298.1 K): 860 µg/mL (≈ 2.42 mM)
solubility at 24 h ([2]; DMSO-water binary mixture, aqueous with cosolvent or surfactant or cyclodextrin, x*DMSO 0.2, 298.1 K): 1580 µg/mL (≈ 4.45 mM)
solubility at 24 h ([2]; DMSO-water binary mixture, aqueous with cosolvent or surfactant or cyclodextrin, x*DMSO 0.3, 298.1 K): 2480 µg/mL (≈ 6.98 mM)
solubility at 24 h ([2]; DMSO-water binary mixture, aqueous with cosolvent or surfactant or cyclodextrin, x*DMSO 0.4, 298.1 K): 3300 µg/mL (≈ 9.29 mM)
solubility at 24 h ([2]; DMSO-water binary mixture, aqueous with cosolvent or surfactant or cyclodextrin, x*DMSO 0.5, 298.1 K): 3750 µg/mL (≈ 10.6 mM)
solubility at 24 h ([2]; DMSO-water binary mixture, aqueous with cosolvent or surfactant or cyclodextrin, x*DMSO 0.6, 298.1 K): 3950 µg/mL (≈ 11.1 mM)
solubility at 24 h ([2]; DMSO-water binary mixture, aqueous with cosolvent or surfactant or cyclodextrin, x*DMSO 0.7, 298.1 K): 4010 µg/mL (≈ 11.3 mM)
solubility at 24 h ([2]; DMSO-water binary mixture, aqueous with cosolvent or surfactant or cyclodextrin, x*DMSO 0.8, 298.1 K): 3850 µg/mL (≈ 10.8 mM)
solubility at 24 h ([2]; DMSO-water binary mixture, aqueous with cosolvent or surfactant or cyclodextrin, x*DMSO 0.9, 298.1 K): 3540 µg/mL (≈ 9.96 mM)
solubility at 24 h ([2]; DMSO-water series, organic solvent or mixture, x*DMSO 1.0, 298.1 K): 3090 µg/mL (≈ 8.7 mM)
solubility x ([2]; x*DMSO 0.2, 298.1 K): 1.21 (0.01) × 10^−4 mole fraction
solubility x ([2]; x*DMSO 0.3, 298.1 K): 2.29 (0.01) × 10^−4 mole fraction
solubility x ([2]; x*DMSO 0.4, 298.1 K): 3.57 (0.03) × 10^−4 mole fraction
solubility x ([2]; x*DMSO 0.5, 298.1 K): 4.59 (0.04) × 10^−4 mole fraction
solubility x ([2]; x*DMSO 0.6, 298.1 K): 5.45 (0.03) × 10^−4 mole fraction
solubility x ([2]; x*DMSO 0.7, 298.1 K): 6.09 (0.03) × 10^−4 mole fraction
solubility x ([2]; x*DMSO 0.8, 298.1 K): 6.47 (0.04) × 10^−4 mole fraction
solubility x ([2]; x*DMSO 0.9, 298.1 K): 6.51 (0.04) × 10^−4 mole fraction
solubility x ([2]; x*DMSO 1.0, 298.1 K): 6.12 (0.07) × 10^−4 mole fraction
solubility at 24 h ([3]; NMP-water binary mixture, x*NMP 0.1, 25 °C, aqueous with cosolvent or surfactant or cyclodextrin, x*NMP 0.1, 298.1 K): 1580 µg/mL (≈ 4.45 mM)
solubility at 24 h ([3]; NMP-water binary mixture, x*NMP 0.2, 25 °C, aqueous with cosolvent or surfactant or cyclodextrin, x*NMP 0.2, 298.1 K): 3290 µg/mL (≈ 9.26 mM)
solubility at 24 h ([3]; NMP-water binary mixture, x*NMP 0.3, 25 °C, aqueous with cosolvent or surfactant or cyclodextrin, x*NMP 0.3, 298.1 K): 4940 µg/mL (≈ 13.9 mM)
solubility at 24 h ([3]; NMP-water binary mixture, x*NMP 0.4, 25 °C, aqueous with cosolvent or surfactant or cyclodextrin, x*NMP 0.4, 298.1 K): 6490 µg/mL (≈ 18.3 mM)
solubility at 24 h ([3]; NMP-water binary mixture, x*NMP 0.7, 25 °C, aqueous with cosolvent or surfactant or cyclodextrin, x*NMP 0.7, 298.1 K): 9560 µg/mL (≈ 26.9 mM)
solubility at 24 h ([3]; NMP-water binary mixture, x*NMP 0.8, 25 °C, aqueous with cosolvent or surfactant or cyclodextrin, x*NMP 0.8, 298.1 K): 10200 µg/mL (≈ 28.7 mM)
solubility at 24 h ([3]; NMP-water binary mixture, x*NMP 0.9, 25 °C, aqueous with cosolvent or surfactant or cyclodextrin, x*NMP 0.9, 298.1 K): 9710 µg/mL (≈ 27.3 mM)
solubility at 24 h ([3]; NMP-water binary solvent, 25 °C, aqueous with cosolvent or surfactant or cyclodextrin, x*NMP 0.5, 298.1 K): 7720 µg/mL (≈ 21.7 mM)
solubility at 24 h ([3]; NMP-water binary solvent, 25 °C, aqueous with cosolvent or surfactant or cyclodextrin, x*NMP 0.6, 298.1 K): 8710 µg/mL (≈ 24.5 mM)
solubility at 24 h ([3]; NMP-water series, x*NMP 1.0, 25 °C, organic solvent or mixture, x*NMP 1.0, 298.1 K): 8990 µg/mL (≈ 25.3 mM)
solubility x ([3]; x*NMP 0.1, 298.1 K): 1.12 (0.01) × 10^−4 mole fraction
solubility x ([3]; x*NMP 0.2, 298.1 K): 3.05 (0.03) × 10^−4 mole fraction
solubility x ([3]; x*NMP 0.3, 298.1 K): 5.74 (0.10) × 10^−4 mole fraction
solubility x ([3]; x*NMP 0.4, 298.1 K): 8.92 (0.10) × 10^−4 mole fraction
solubility x ([3]; x*NMP 0.5, 298.1 K): 1.24 (0.01) × 10^−3 mole fraction
solubility x ([3]; x*NMP 0.6, 298.1 K): 1.60 (0.02) × 10^−3 mole fraction
solubility x ([3]; x*NMP 0.7, 298.1 K): 1.99 (0.02) × 10^−3 mole fraction
solubility x ([3]; x*NMP 0.8, 298.1 K): 2.29 (0.02) × 10^−3 mole fraction
solubility x ([3]; x*NMP 0.9, 298.1 K): 2.40 (0.03) × 10^−3 mole fraction
solubility x ([3]; x*NMP 1.0, 298.1 K): 2.44 (0.06) × 10^−3 mole fraction
